Data on three compounds can be found in US20250281508A1, “CATIONIC STEROIDAL ANTIMICROBIAL SALTS” (BRIGHAM YOUNG UNIVERSITY, priority 2015, published 2025).

A short description of data set [1]: Coating stability (sluff off) of polyurethane coatings on medical devices immersed in water. Type of data set: physicochemical. How it is done: In a first comparative test, medical devices made from various substrate materials (i.e., stainless steel, titanium, and silicone) were coated with polyurethane coatings containing either di-NDSA salts of CSA compounds (i.e., CSA-13 and/or CSA-131) or HCl acid addition salts of the same CSA compounds, and then tested for long-term stability when immersed in water. Coating stability was determined by measuring how fast the coatings began to sluff off from the medical device. The NDSA salts are di-addition salts.

Data set [2] is described as follows: Stability of CSA-13 salts: purity under various conditions. The class given is physicochemical. How it is done: Approximately 300 mg of CSA-13 was weighed into a scintillation vial. 6 mL of tetrohydrofuran was added to the vial. Hydrochloric acid (2 equivalents) was then added to the vial. […] Solids were isolated and dried at ambient temperature prior to analysis.

Data set [3] can be described thus: Coating stability (sluff off) of silicone coatings on medical devices immersed in water. Type of data set: physicochemical. How it is done:
In a second comparative test, medical devices made from various substrate materials (i.e., stainless steel, titanium, and silicone) were coated with silicone coatings containing either di-NDSA salts of CSA compounds (i.e., CSA-13 and/or CSA-131) or HCl acid addition salts of the same CSA compounds, and then tested for long-term stability when immersed in water. Coating stability was determined by measuring how fast the coatings began to sluff off from the medical device.

The nature of data set [4]: Rate of elution of CSA from silicone coatings immersed in water. The class given is physicochemical. From the text:
In a fourth comparative test, medical devices made from various substrate materials (i.e., stainless steel, titanium, and silicone) were coated with silicone coatings containing either a di-NDSA salt of a representative CSA compound (i.e., CSA-131) or the HCl acid addition salt of the same CSA compound, and then tested to determine the rate of elution of the CSA compound from the coated medical device when immersed in water.

Data set [5] is described as follows: Dynamic vapor sorption (DVS) analysis, XRPD before and after. The class given is physicochemical. From the text:
FIG. 9 provides an overlay of the XRPD spectrum pre- and post-DVS analysis.

Data set [6] can be described thus: Elution of CSA-131 from polyurethane coating following EtO sterilization. Type of data set: physicochemical. The settings on record: for % of Total μg on OD: total CSA-131 content on OD 3976 μg; for Eluted Amount in μg/cm^3: total OD surface area 99.4 cm^2; for Average Amount Eluted: ETT polyurethane coating. As to the method: The elution rate of CSA-131 from the same polyurethane coating containing the HCl acid addition salt of CSA-131 (with solution exchange every 24 hours) is shown in Table 24: […] Moreover, elution of CSA-131 from the ETT with the same polyurethane coating containing the di-NDSA of CSA-131 remained relatively consistent for 96 hours, providing continuous activity against biofilms. This is shown by the data in Table 25.

Data set [7] is described as follows: Reactivity with ethylene oxide (EtO) in polyurethane coating, by mass spectroscopy. Type of data set: physicochemical. The settings on record: ETT with polyurethane coating sterilized multiple times with EtO. From the text: In a seventh comparative test, the elution rate and antibacterial activity of polyurethane coatings containing either the di-NDSA salt of a representative CSA compound (i.e., CSA-131) or the HCl acid addition salt of the same CSA compound following sterilization with ethylene oxide (EtO) were compared, and also the tendency of the acid addition salt of the CSA compound to react with the EtO.
For EtO reactivity with the HCl acid addition salt of CSA-131, the following percentages of CSA-131 and CSA-131-EtO adducts were observed via mass spectroscopy following EtO treatment of a medical device with a polyurethane coating containing the HCl acid addition salt of CSA-131.
Moreover, elution of CSA-131 from the ETT with the same polyurethane coating containing the di-NDSA of CSA-131 remained relatively consistent for 96 hours, providing continuous activity against biofilms. This is shown by the data in Table 25.

The nature of data set [8]: Rate of elution of CSA from polyurethane coatings immersed in water. Type of data set: physicochemical. From the text: In a third comparative test, medical devices made from various substrate materials (i.e., stainless steel, titanium, and silicone) were coated with polyurethane coatings containing either a di-NDSA salt of a representative CSA compound (i.e., CSA-131) or the HCl acid addition salt of the same CSA compound, and then tested to determine the rate of elution of the CSA compound from the coated medical device when immersed in water.

Data set [9] in a line: Rate of elution of CSA from impregnated PLGA copolymer devices immersed in water. The settings on record: impregnated PLGA copolymer device. Type of data set: physicochemical. From the text:
In a fifth comparative test, medical devices were made from PLGA copolymer impregnated with either a di-NDSA salt of a representative CSA compound (i.e., CSA-131) or the HCl acid addition salt of the same CSA compound, and then tested to determine the rate of elution of the CSA compound from the medical device when immersed in water.

Data set [10] is described as follows: Solvent solubility test (solvent addition technique). Type of data set: physicochemical. As to the method:
(§1) Solubility values were estimated by a solvent addition technique, based on the following protocol: CSA-13 (20 mg) was weighed and individually distributed to 24 vials. Each solvent was added to the appropriate vial in 10 aliquots of 10 μL, 5 aliquots of 20 μL, 3 aliquots of 100 μL, and 1 aliquot of 500 μL. If complete dissolution was observed, the additions were stopped. Between additions, the sample was stirred to further encourage dissolution. If […] of solvent was added without dissolution, the solubility was calculated to be below this point. Polarized light microscopy analysis was performed on solids obtained from acetonitrile, 1,4-dioxane, ethyl acetate, isopropanol, and THF.
A solubility screen was performed as described above for the sulphate salt of CSA-13.
as §1, with “CSA-44” for “CSA-13”, “from acetone,” for “from”, “1,4-dioxane, ethanol,” for “1,4-dioxane,”, “acetate,” for “acetate, isopropanol,”, “methanol.” for “THF.”

Where [11] appears, read: polyurethane coating on Silicone.
The mark [12] stands for this setting: polyurethane coating on Stainless Steel.
Where [13] appears, read: polyurethane coating on Titanium.
Where [14] appears, read: silicone coating on Stainless Steel.

In the case of `CCCCCCCCNCCCC(C)C1CCC2C3C(OCCCN)CC4CC(OCCCN)CCC4(C)C3CC(OCCCN)C12C.O=S(=O)(O)c1cccc2c(S(=O)(=O)O)cccc12.O=S(=O)(O)c1cccc2c(S(=O)(=O)O)cccc12` (stereo not shown) [CSA-13 NDSA], the “Sluff Off Time” value in [1] (setting [11]), in [1] (setting [12]), in [1] (setting [13]), in [3] (silicone coating on Silicone), in data set [3] (setting [14]) and in [3] (silicone coating on Titanium) was “None after 30+ days” in each case. The “Purity (%)” value in data set [2] (40° C./75% RH) is 97.93%; in data set [2] (80° C.) it was 98.16%; in data set [2] (Ambient light), 98.57%; in data set [2] (Starting Purity), 98.52%.

Turning to `CCCCCCCCCCCCNCCCC(C)C1CCC2C3C(OCCCN)CC4CC(OC(=O)CCN)CCC4(C)C3CC(OCCCN)C12C.O=S(=O)(O)c1cccc2c(S(=O)(=O)O)cccc12.O=S(=O)(O)c1cccc2c(S(=O)(=O)O)cccc12` (stereo not shown) [CSA-131 NDSA], the “Time for 50% of CSA to elute” value in data set [4] (silicone coating on Silicone), in data set [4] (setting [14]), in [4] (silicone coating on Titanium), in data set [8] (setting [11]), in data set [8] (setting [12]) and in data set [8] (setting [13]) was above 7 days in each case. Besides, the “Time for 50% of CSA to elute” value in data set [9] is recorded as above 7 days. For the same compound, in data set [5] (XRPD after DVS analysis (FIG. 8, 9)), the “Effect of DVS analysis on crystallinity” value is recorded as “did not significantly impact crystallinity”. Moreover, in [5] (dynamic vapor sorption isotherm (FIG. 7)), the DVS hysteresis result is “minimal hysteresis”. The “% of Total μg on OD” value in data set [6] (0-24 hours) stood at 2.37%; in [6] (24-48 hours), 2.14%; in data set [6] (48-72 hours) it was 1.63%; in data set [6] (72-96 hours), 2.01%; in data set [6] (Total over 0-96 hours), 8.15%. Further, the “Eluted Amount in μg/cm^3” value is on record as 0.95 μg/cm^2 in data set [6] (0-24 hours); 0.85 μg/cm^2 in data set [6] (24-48 hours); 0.65 μg/cm^2 in data set [6] (48-72 hours); 0.81 μg/cm^2 in data set [6] (72-96 hours); 3.26 μg/cm^2 in [6] (Total over 0-96 hours). In addition, the “Average Amount Eluted” value in data set [6] (Total over 0-96 hours) was determined as 324 µg; in data set [6] (time interval 0-24 hours) it was 94.3 µg; in data set [6] (time interval 24-48 hours) it was 84.9 µg; in data set [6] (time interval 48-72 hours), 64.9 µg; in data set [6] (time interval 72-96 hours), 80.1 µg. Besides, in data set [7], the “EtO adducts observed by mass spectroscopy” value is given as “no EtO adducts were observed”. Further, the “Sluff Off Time” value in data set [1] (setting [11]), in data set [1] (setting [12]), in [1] (setting [13]), in data set [3] (silicone coating on Silicone), in [3] (setting [14]) and in data set [3] (silicone coating on Titanium) was “None after 30+ days” each time. Further, the “Solubility in Ethanol” value (ethanol) was below 0.05 mg/mL. For the same compound, the “Solubility in Water” value (water) is below 0.02 mg/mL.

On to `CCCCCCCCNCCCC(C)C1CCC2C3C(OCCCN)CC4CC(OCCCN)CCC4(C)C3CC(OCCCN)C12C.O=S(=O)(O)O` (stereo not shown) [sulphate salt of CSA-13], for which the “Approximate Solubility at 22° C.” value in data set [10] (solvent 1,4-dioxane) is reported as below 11.3 mg/mL; in data set [10] (solvent 1-butanol), above 37.7 mg/mL; in data set [10] (solvent 2-propanol), above 20.9 mg/mL; in data set [10] (solvent Acetone) it was below 10.5 mg/mL; in data set [10] (solvent Acetonitrile) it was below 10.4 mg/mL; in data set [10] (solvent Dichloromethane), above 193.9 mg/mL. The “Approximate Solubility at 22° C.” value in data set [10] (solvent Ethanol) is reported as above 98.4 mg/mL; in data set [10] (solvent Methanol), above 199.7 mg/mL; in data set [10] (solvent TBME), below 10.1 mg/mL; in data set [10] (solvent Tetrahydrofuran), below 11.0 mg/mL; in [10] (solvent Toluene), above 102.8 mg/mL. Moreover, the “Purity (%)” value in data set [2] (40° C./75% RH) amounted to 97.50%; in data set [2] (80° C.), 97.96%; in data set [2] (Ambient light), 99.76%; in data set [2] (Starting Purity) it was 99.34%.
